The assay relates to LPS-stimulated Raw264.7 cells. In words: Western blotting of pro-inflammatory cytokines. The assay is classed as cell-based. The following applies: WB; co-culture with LPS-stimulated Raw264.7 cells for 2 days; vs LPS. How it is done:
In some embodiments, to assess whether M1 macrophage-targeted FA-PDA nanocarriers enhance the efficiency of anti-inflammatory therapy with loaded Leon, FA-PDA@Leon was co-cultured with LPS-stimulated Raw264.7 cells for 2 days, after which western blotting (WB) analysis was performed. A first group (Group 1) in FIG. 4G to FIG. 4J represents the control group (NC), a second group (Group 2) represents the LPS treatment, a third group (Group 3) represents the LPS and Leon co-treatment, a fourth group (Group 4) represents the LPS and PDA co-treatment, the fifth group (Group 5) represents the LPS and PDA@Leon co-treatment, and a sixth group (Group 6) indicates the LPS and FA-PDA@Leon co-treatment.

On to `COc1cc(C(=O)OCCCCNC(=N)N)cc(OC)c1O` [Leon, leonurine], for which the “protein expression of pro-inflammatory cytokines (iNOS, IL-13, IL-6, TNF-α)” value was “down-regulated”.

Source of the values: patent US12324798B1, “Leonurine nanocomposite hydrogel and preparation methods and applications thereof” (WEST CHINA HOSPITAL OF SICHUAN UNIVERSITY, priority 2023, dated 2025).
